Results as given in patent publication US8211909B2, “Treatment of antibiotic-resistant bacteria infection” (TaiGen Biotechnology Co., Ltd., priority 2008, dated 2012).
In brackets after ≈: the same amount, converted by molar mass. Read-outs that look alike come from different tables or passages of the source.

How the values were obtained:
[1] = tested on: Methicillin-resistant Staphylococcus aureus (MRSA) isolates; test: MIC by broth microdilution (CLSI) against CAN-ICU MRSA isolates; type: cell-based; details: for MIC50 / MIC90 / MIC: Staphylococcus aureus; for MIC50: read-out: MIC50; for MIC90: read-out: MIC90
Source text: MRSA isolates (n=193) were obtained as part of the Canadian National Intensive Care Unit (CAN-ICU) Study. 19 medical centers from all regions of Canada with active ICUs participated in the CAN-ICU study included. They were requested to only obtain “clinically significant” specimens from patients with a presumed infectious disease. Surveillance swabs, eye, ear, nose and throat swabs were excluded. Anaerobic organisms and fungal organisms were also excluded.
From September 2005-June 2006 (inclusive), each center collected a maximum of 300 consecutive pathogens isolated from blood, urine, tissue/wound, and respiratory specimens (one pathogen per cultured site per patient) of ICU patients. These isolates were shipped to the reference laboratory (Health Sciences Centre, Winnipeg, Canada) on Amies charcoal swabs, subcultured in appropriate media, and stocked in skim milk at −80° C.
All isolates underwent mecA PCR, as well as molecular characterization (including PVL analysis and fingerprinting), as previously described, to assess whether they were community-associated or healthcare-associated (Christianson et al., J Clin Microbiol. 2007, 45 (6): 1904-11; Mulvey et al., J Clin. Microbiol. 2001, 39(10): 3481-5; Mulvey et al., Emerg Infect Dis. 2005,11(6): 844-50; Oliveira et al., Antimicrob Agents Chemother. 2002, 46(7): 2155-61). The isolates were also subtyped using pulsed-field gel electrophoresis (PFGE) following the Canadian standardized protocol as previously described (Mulvey et al., J Clin Microbiol. 2001, 39(10): 3481-5). Their PFGE fingerprints thus obtained were analyzed with BioNumerics v3.5 (Applied Maths St. Marten-Latem, Belgium) using a position tolerance of 1.0 and an optimization of 1.0. Strain relatedness was determined as previously described (Tenover et al., 1995). The fingerprints of the isolates were compared to the national MRSA fingerprint database and were grouped into one of 10 Canadian epidemic MRSA (CMRSA-1, CMRSA-2, etc) as previously described (Mulvey et al., Emerg Infect Dis. 2005,11(6):844-50).
Compound 1 and other antibiotics were tested for their inhibitory activity against the MRSA isolates using the broth microdilution guidelines as stipulated by the Clinical and Laboratory Standards Institute.

[2] = tested on: Vancomycin-resistant E. faecalis; test: MIC by agar dilution (CLSI-M100-S18), Taiwan Enterococci isolates; type: cell-based, Enterococcus faecalis
Method: Compound 1 was tested for its inhibitory effect against multidrug-resistant Methicillin-resistant Staphylococcus aureus and Enterococci obtained by 10 medical centers in all regions of Taiwan. MICs were determined using the agar dilution methods recommended by the Clinical and Laboratory Standards Institute (CLSI-M100-S18).

[3] = tested on: Staphylococcus epidermidis (MSSE, MRSE); test: CANWARD 2007 gram-positive cocci, CLSI broth microdilution; type: cell-based; parameters: MIC50 / MIC90: unit not given beside the values
Method: From January-December 2007, 12 hospitals across Canada submitted isolates from patients attending hospital clinics, emergency rooms, medical and surgical wards, and intensive care units. 7881 isolates (CANWARD 2007) were collected including 3473 gram-positive cocci. Susceptibility testing for Compound 1 and Levofloxacin was performed using the Clinical and Laboratory Standards Institute broth microdilution.

[4] = MRSA / USA100, USA 100/800 (HA-MRSA)
[5] = MRSA / USA200, USA 200 (HA-MRSA)
[6] = MRSA / USA300, USA 300 (CA-MRSA)
[7] = MRSA / USA400, USA 400 (CA-MRSA)
[8] = MRSA / USA600, USA 600 (HA-MRSA)
[9] = Enterococcus faecalis, Vancomycin-resistant E. faecalis (n = 34)

COc1c(N2C[C@@H](C)C[C@H](N)C2)ccc2c(=O)c(C(=O)O)cn(C3CC3)c12 [Compound 1, (3S,5S)-7-[3-amino-5-methyl-piperidinyl]-1-cyclopropyl-1,4-dihydro-8-methoxy-4-oxo-3-quinolinecarboxylic acid]
activity against community-associated versus healthcare-associated MRSA strains (in words) ([1]; CA-MRSA vs HA-MRSA strains): more active against community-associated-MRSA strains than healthcare-associated-MRSA strains
inhibition of MRSA (in words) ([1]; MRSA isolates): effectively inhibited
MIC50 [1, 4]: 4 µg/mL (≈ 10.8 µM)
MIC90 [1, 4]: > 4 µg/mL
MIC50 [1, 5]: 2 µg/mL (≈ 5.38 µM)
MIC90 [1, 5]: 2 µg/mL (≈ 5.38 µM)
MIC50 [1, 6]: 0.5 µg/mL (≈ 1.35 µM)
MIC90 [1, 6]: 0.5 µg/mL (≈ 1.35 µM)
MIC50 [1, 7]: 0.06 µg/mL (≈ 0.162 µM)
MIC90 [1, 7]: 0.06 µg/mL (≈ 0.162 µM)
MIC50 [1, 8]: 2 µg/mL (≈ 5.38 µM)
MIC90 [1, 8]: 2 µg/mL (≈ 5.38 µM)
MIC50 ([1]; MRSA (n = 193)): 4 µg/mL (≈ 10.8 µM)
MIC90 ([1]; MRSA (n = 193)): > 4 µg/mL
MIC ([1]; MRSA (n = 193), read-out: MIC Range Max): > 4 µg/mL
MIC ([1]; MRSA (n = 193), read-out: MIC Range Min): 0.03 µg/mL (≈ 0.0808 µM)
MIC50 [2, 9]: 4 µg/mL (≈ 10.8 µM)
MIC90 [2, 9]: 4 µg/mL (≈ 10.8 µM)
MIC Range ([2]; Vancomycin-resistant E. faecalis (n = 34)): 0.12 to 8 µg/mL
inhibition (in words) ([2]; Vancomycin-resistant Enterococcus faecalis): effective
activity compared with Levofloxacin (in words) ([3]; MRSE): more active than Levofloxacin
MIC50 ([3]; MRSE (9)): 2/2
MIC90 ([3]; MRSE (9)): 2/2
MIC50 ([3]; MSSE (32)): 0.03
MIC90 ([3]; MSSE (32)): 0.5
